The source of these data is patent publication US20240350422A1, “FORMULATION PROCESS FOR CPMV NANOPARTICLES” (The Regents of the University of California, priority 2021, published 2024).

Where no end group is shown, it is not given here.

Data set [1] can be described thus: Observed water / reaction buffer solubility of ligands. The conditions noted are these: for solubility in the reaction buffer: 0.01 M potassium phosphate reaction buffer (pH 7.4); for Observed water solubility: Table 1.
Data set [2] is described as follows: Dynamic light scattering (DLS) of plant VNPs and conjugates. The class given is physicochemical. The conditions noted are these: purified conjugate particles; (+F127) = COAT/FORMCOAT, (−F127) = uncoated control. As for the experimental part: DLS. The hydrodynamic diameter of native and conjugated plant VNPs was determined by diluting the samples to 1 mg/mL in 0.01 M potassium phosphate buffer (pH 7.4) followed by measurement using a Zetasizer Nano ZSP/Zen5600 instrument (Malvern Panalytical, Malvern, UK). The particle length was calculated as the weighted mean of the intensity distribution.

A short description of data set [3]: Aggregation / dispersion of conjugate particles (photograph, DLS, TEM). The data set is classed as physicochemical. Conditions: pH 7.4.

As for `CC[C@H](C)[C@H](NC(=O)[C@H](Cc1c[nH]c2ccccc12)NC(=O)CNC(=O)[C@H](CCCNC(=N)N)NC(=O)[C@@H](NC(=O)[C@@H](NC(=O)[C@H](CC(N)=O)NC(=O)[C@H](CO)NC(=O)[C@H](CCCCN)NC(=O)[C@H](CCC(=O)O)NC(=O)[C@@H](NC(=O)[C@H](CO)NC(=O)[C@H](C)NC(=O)[C@H](Cc1ccccc1)NC(=O)CNC(=O)CNC(=O)CNC(=O)[C@@H](N)CS)[C@@H](C)O)[C@@H](C)CC)[C@@H](C)CC)C(=O)N[C@@H](Cc1ccccc1)C(=O)O` [COVID-106], in data set [1], the “solubility in the reaction buffer” value is on record as “insoluble” and the Observed water solubility entry is “Poor”.
With `CSCC[C@H](NC(=O)[C@H](Cc1c[nH]c2ccccc12)NC(=O)[C@H](CO)NC(=O)[C@H](CCCCN)NC(=O)[C@H](CC(N)=O)NC(=O)[C@H](CC(N)=O)NC(=O)[C@H](CCCCN)NC(=O)[C@H](Cc1c[nH]cn1)NC(=O)[C@H](Cc1ccc(O)cc1)NC(=O)[C@H](Cc1ccc(O)cc1)NC(=O)[C@@H](NC(=O)CNC(=O)[C@H](CC(C)C)NC(=O)[C@H](Cc1ccccc1)NC(=O)[C@@H]1CCCN1C(=O)CNC(=O)CNC(=O)CNC(=O)[C@@H](N)CS)C(C)C)C(=O)O` [COVID-153], in data set [1], the “solubility in the reaction buffer” value was “insoluble” and the Observed water solubility result was “Poor”.
Take `CC(C)C[C@H](NC(=O)[C@H](Cc1ccc(O)cc1)NC(=O)[C@H](CC(N)=O)NC(=O)[C@H](Cc1ccc(O)cc1)NC(=O)[C@H](CC(N)=O)NC(=O)CNC(=O)CNC(=O)[C@@H](NC(=O)[C@H](CCCCN)NC(=O)[C@H](CO)NC(=O)[C@H](CC(=O)O)NC(=O)[C@H](CC(C)C)NC(=O)[C@H](CC(N)=O)NC(=O)[C@H](CC(N)=O)NC(=O)CNC(=O)CNC(=O)CNC(=O)[C@@H](N)CS)C(C)C)C(=O)N[C@@H](Cc1ccc(O)cc1)C(=O)N[C@@H](CCCNC(=N)N)C(=O)O` [COVID-454]: in data set [1], the “solubility in the reaction buffer” value is recorded as “insoluble” and the Observed water solubility entry is “Poor”.
For `CC[C@H](C)[C@H](NC(=O)[C@H](Cc1ccccc1)NC(=O)[C@H](CO)NC(=O)[C@H](CCCNC(=N)N)NC(=O)[C@H](CCCCN)NC(=O)[C@H](CO)NC(=O)[C@@H]1CCCN1C(=O)[C@H](CCCCN)NC(=O)[C@H](CO)NC(=O)[C@@H]1CCCN1C(=O)CNC(=O)CNC(=O)CNC(=O)[C@@H](N)CS)C(=O)N[C@@H](CCC(=O)O)C(=O)N[C@@H](CC(=O)O)C(=O)N[C@@H](CC(C)C)C(=O)N[C@@H](CC(C)C)C(=O)N[C@@H](Cc1ccccc1)C(=O)N[C@@H](CC(N)=O)C(=O)N[C@@H](CCCCN)C(=O)N[C@H](C(=O)O)C(C)C` [COVID-826], in data set [1], the Observed water solubility entry is “Good”.
Still for that read-out and setting: with CGGGVFLQKYPHTHLVHQA [Myostatin 1] the entry was “Good”; with CSGGGDWFKAFYDKVAEKFKEAF [ApoAI-4FN], “Good”; with CSGGGWGWSLSHGYQVK [ScG3], “Good”.
For YQDMVLWKDVFRKNNQLAPVGPSLC [CH401-Rat], in data set [1], the “solubility in the reaction buffer” value is “insoluble” and the Observed water solubility result was “Poor”.

B1: TMV-Cy5.5 (+F127): Cy5.5 conjugated to TMV lysines via NHS ester, COAT method; Table 4 row Cy5.5 NHS (+F127) (conjugate, UniProt P69687 2-159, looked up)
Capsid protein: SYSITTPSQFVFLSSAWADPIELINLCTNALGNQFQTQQARTVVQRQFSEVWKPSPQVTVRFPDSDFKVYRYNAVLDPLVTALLGAFDTRNRIIEVENQANPTTAETLDATRRVDDATVAIRSAINNLIVELIRGTGSYNRSSFESSSGLVWTSGPAT
modifications: Cy5.5 dye, F127 coated virion
Take B1: in data set [2], the PDI amounted to 0.236 and the Z-average was found to be 277.6 nm. The “aggregation / dispersion of the particles” value in data set [3] is “dispersed and soluble, with no visible signs of aggregation”.

B2: TMV-Cy5.5 (−F127): Cy5.5 conjugated to uncoated TMV, control; Table 4 row Cy5.5 NHS (−F127) (conjugate, UniProt P69687 2-159, looked up)
Capsid protein: B1 Capsid protein
modifications: Cy5.5 dye on whole virion
In data set [2], B2 yielded a PDI of 0.749 and a Z-average of 436.8 nm. For the same molecule, the “aggregation / dispersion of the particles” value in data set [3] is on record as “prone to aggregation”.
